Tests used:
TBK1 = TBK1 (Homo sapiens (Human), UniProt Q9UHD2); assay: TBK1 TR-FRET enzymatic assay;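 further: phosphorylation of a biotinylated Ser/Thr peptide by purified full-length recombinant TBK1, read by TR-FRET after 240 min at 25 °C, IC50 is the geometric mean of at least four runs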
IKKε = IKKε (Homo sapiens (Human), UniProt Q14164); assay: IKKε TR-FRET enzymatic assay; assay type: biochemical; settings: TR-FRET, 2×Km ATP; geometric mean of minimum four determinations; read-out: IKKe IC50
IKKε, sequence (Q14164 whole entry): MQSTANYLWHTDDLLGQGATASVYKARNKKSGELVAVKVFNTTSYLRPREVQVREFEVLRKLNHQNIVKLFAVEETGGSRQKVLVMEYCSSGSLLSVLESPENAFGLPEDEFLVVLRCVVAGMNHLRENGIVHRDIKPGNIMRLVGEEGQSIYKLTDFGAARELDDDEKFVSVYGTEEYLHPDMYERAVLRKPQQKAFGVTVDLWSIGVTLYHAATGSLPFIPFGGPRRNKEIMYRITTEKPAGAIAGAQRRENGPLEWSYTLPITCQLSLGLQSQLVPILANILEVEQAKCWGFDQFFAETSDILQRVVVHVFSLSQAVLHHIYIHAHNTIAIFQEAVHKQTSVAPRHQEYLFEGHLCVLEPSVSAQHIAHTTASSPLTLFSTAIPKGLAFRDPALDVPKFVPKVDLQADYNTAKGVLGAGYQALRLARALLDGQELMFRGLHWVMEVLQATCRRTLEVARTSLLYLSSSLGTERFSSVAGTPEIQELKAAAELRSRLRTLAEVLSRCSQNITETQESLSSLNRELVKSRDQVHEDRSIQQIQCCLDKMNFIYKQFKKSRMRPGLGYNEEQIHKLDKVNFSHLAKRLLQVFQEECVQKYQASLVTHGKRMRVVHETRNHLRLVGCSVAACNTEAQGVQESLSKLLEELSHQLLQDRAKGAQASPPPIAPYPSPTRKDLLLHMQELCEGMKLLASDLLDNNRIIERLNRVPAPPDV

hJAK2 = hJAK2 (Homo sapiens (Human), UniProt O60674); assay: hJAK2 LANCE TR-FRET enzymatic assay; assay type: biochemical; settings: read-out: JAK2 IC50
hJAK2, sequence (O60674 whole entry): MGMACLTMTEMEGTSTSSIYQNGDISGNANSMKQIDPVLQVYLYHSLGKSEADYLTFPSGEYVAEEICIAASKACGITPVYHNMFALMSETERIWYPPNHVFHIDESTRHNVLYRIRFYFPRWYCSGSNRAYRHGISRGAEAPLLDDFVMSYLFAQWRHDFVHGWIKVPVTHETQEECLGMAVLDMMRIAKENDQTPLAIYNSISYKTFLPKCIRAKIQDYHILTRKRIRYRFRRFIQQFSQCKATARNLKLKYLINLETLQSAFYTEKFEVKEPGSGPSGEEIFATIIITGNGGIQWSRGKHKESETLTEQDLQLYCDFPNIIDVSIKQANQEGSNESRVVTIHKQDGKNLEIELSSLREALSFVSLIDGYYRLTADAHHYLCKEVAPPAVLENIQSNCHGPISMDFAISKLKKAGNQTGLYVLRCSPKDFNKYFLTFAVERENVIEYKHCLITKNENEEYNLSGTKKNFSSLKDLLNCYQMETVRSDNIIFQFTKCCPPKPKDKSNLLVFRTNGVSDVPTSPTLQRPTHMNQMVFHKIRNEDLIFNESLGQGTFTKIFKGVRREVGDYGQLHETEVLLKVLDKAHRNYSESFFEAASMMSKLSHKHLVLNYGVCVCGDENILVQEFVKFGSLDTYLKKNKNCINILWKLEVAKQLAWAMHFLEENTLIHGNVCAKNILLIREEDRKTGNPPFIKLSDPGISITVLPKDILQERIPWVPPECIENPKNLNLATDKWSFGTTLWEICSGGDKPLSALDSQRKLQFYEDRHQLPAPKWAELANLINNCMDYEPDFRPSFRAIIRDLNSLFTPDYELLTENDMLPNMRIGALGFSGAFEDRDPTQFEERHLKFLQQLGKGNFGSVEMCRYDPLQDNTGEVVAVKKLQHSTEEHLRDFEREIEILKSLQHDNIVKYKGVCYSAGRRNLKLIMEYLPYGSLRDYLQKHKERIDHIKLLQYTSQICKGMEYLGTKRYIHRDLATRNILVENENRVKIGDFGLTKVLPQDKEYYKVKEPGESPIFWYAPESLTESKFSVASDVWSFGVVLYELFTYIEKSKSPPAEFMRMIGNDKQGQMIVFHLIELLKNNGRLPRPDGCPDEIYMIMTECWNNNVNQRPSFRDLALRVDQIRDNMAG

TBK1, sequence (Q9UHD2 whole entry): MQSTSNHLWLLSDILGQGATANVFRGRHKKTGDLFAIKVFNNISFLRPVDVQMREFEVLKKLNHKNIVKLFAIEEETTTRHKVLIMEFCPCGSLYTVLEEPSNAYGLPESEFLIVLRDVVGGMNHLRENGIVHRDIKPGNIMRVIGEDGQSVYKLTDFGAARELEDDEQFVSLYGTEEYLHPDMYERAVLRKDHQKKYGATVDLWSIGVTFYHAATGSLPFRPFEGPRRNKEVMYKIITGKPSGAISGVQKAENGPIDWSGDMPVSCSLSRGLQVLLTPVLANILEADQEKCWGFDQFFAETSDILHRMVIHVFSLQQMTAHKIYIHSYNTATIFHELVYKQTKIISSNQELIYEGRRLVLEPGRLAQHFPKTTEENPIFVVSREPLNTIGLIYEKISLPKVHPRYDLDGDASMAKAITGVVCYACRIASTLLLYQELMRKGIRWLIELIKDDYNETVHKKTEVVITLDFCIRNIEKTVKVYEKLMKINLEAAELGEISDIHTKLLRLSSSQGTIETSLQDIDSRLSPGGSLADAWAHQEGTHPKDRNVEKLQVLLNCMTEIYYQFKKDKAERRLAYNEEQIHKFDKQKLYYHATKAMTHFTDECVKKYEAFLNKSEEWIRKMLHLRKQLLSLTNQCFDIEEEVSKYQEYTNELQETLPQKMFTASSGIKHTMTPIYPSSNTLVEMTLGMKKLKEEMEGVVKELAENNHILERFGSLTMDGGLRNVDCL

Row | Structure (SMILES) | IC50 (TBK1) [nM] | IC50 (IKKε) [nM] | IC50 (hJAK2) [nM]
1 | N#CCC(=O)N1CC[C@H](Oc2ccc(-c3ncnc(Nc4ccc(N5CCO[C@@H](CO)C5)cc4)n3)cc2C#N)[C@H](F)C1 [Example 467, 2-(((3R,4S)-1-(2-cyanoacetyl)-3-fluoropiperidin-4-yl)oxy)-5-(4-((4-((R)-2-(hydroxymethyl)morpholino)phenyl)amino)-1,3,5-triazin-2-yl)benzonitrile] | 4 | 4 | 171
2 | C[C@H](O)C(=O)N1CC[C@H](Oc2ccc(-c3ncnc(Nc4ccc(N5CCN(C6COC6)[C@@H](CO)C5)cc4)n3)cc2C#N)[C@H](F)C1 [Example 468, 2-(((3R,4S)-3-fluoro-1-((S)-2-hydroxypropanoyl)piperidin-4-yl)oxy)-5-(4-((4-((R)-3-(hydroxymethyl)-4-(oxetan-3-yl)piperazin-1-yl)phenyl)amino)-1,3,5-triazin-2-yl)benzonitrile] | 3 | 2 | 486
3 | C[C@H](O)C(=O)N1CC[C@H](Oc2ccc(-c3ncnc(Nc4ccc(N5CCN(C6COC6)[C@@H](CO)C5)cc4)n3)cc2C#N)C(F)(F)C1 [Example 469, 2-(((S)-3,3-difluoro-1-((S)-2-hydroxypropanoyl)piperidin-4-yl)oxy)-5-(4-((4-((R)-3-(hydroxymethyl)-4-(oxetan-3-yl)piperazin-1-yl)phenyl)amino)-1,3,5-triazin-2-yl)benzonitrile] | 2 | 1 | 197
4 | C[C@H](O)CC(=O)N1CC[C@H](Oc2ccc(-c3ncnc(Nc4ccc(N5CCN(C6COC6)CC5)cc4)n3)cc2C#N)[C@H](F)C1 [Example 470, 2-(((3R,4S)-3-fluoro-1-((S)-3-hydroxybutanoyl)piperidin-4-yl)oxy)-5-(4-((4-(4-(oxetan-3-yl)piperazin-1-yl)phenyl)amino)-1,3,5-triazin-2-yl)benzonitrile] | 12 | 44 | ≥ 1000
5 | C[C@@H](O)CC(=O)N1CC[C@H](Oc2ccc(-c3ncnc(Nc4ccc(N5CCN(C6COC6)CC5)cc4)n3)cc2C#N)[C@H](F)C1 [Example 471, 2-(((3R,4S)-3-fluoro-1-((R)-3-hydroxybutanoyl)piperidin-4-yl)oxy)-5-(4-((4-(4-(oxetan-3-yl)piperazin-1-yl)phenyl)amino)-1,3,5-triazin-2-yl)benzonitrile] | 6 | 14 | 702
6 | N#Cc1cc(-c2ncnc(Nc3ccc(N4CCN(C5COC5)CC4)cc3)n2)ccc1O[C@H]1CCN(C(=O)C2(O)COC2)C[C@H]1F [Example 472, 2-(((3R,4S)-3-fluoro-1-(3-hydroxyoxetane-3-carbonyl)piperidin-4-yl)oxy)-5-(4-((4-(4-(oxetan-3-yl)piperazin-1-yl)phenyl)amino)-1,3,5-triazin-2-yl)benzonitrile] | 19 | 43 | 971
7 | N#Cc1cc(-c2ncnc(Nc3ccc(N4CCN(C5COC5)CC4)cc3)n2)ccc1O[C@H]1CCN(C(=O)c2cnco2)C[C@H]1F [Example 473, 2-(((3R,4S)-3-fluoro-1-(oxazole-5-carbonyl)piperidin-4-yl)oxy)-5-(4-((4-(4-(oxetan-3-yl)piperazin-1-yl)phenyl)amino)-1,3,5-triazin-2-yl)benzonitrile] | 3 | 3 | 771
8 | COc1cc(Nc2ncnc(-c3ccc(O[C@H]4CCN(C(=O)[C@H](C)O)C[C@H]4F)c(C#N)c3)n2)ccn1 [Example 474] | 6 | 10 | ≥ 1000
9 | N#Cc1cc(-c2ncnc(Nc3ccc(N4CCN(C5COC5)CC4)cc3)n2)ccc1O[C@H]1CCN(C(=O)[C@@H]2COCCN2)C[C@H]1F [Example 475, 2-(((3R,4S)-3-fluoro-1-((S)-morpholine-3-carbonyl)piperidin-4-yl)oxy)-5-(4-((4-(4-(oxetan-3-yl)piperazin-1-yl)phenyl)amino)-1,3,5-triazin-2-yl)benzonitrile] | 23 | 50 | ≥ 1000

Source: patent publication US10040781B2, “Tank-binding kinase inhibitor compounds” (Gilead Sciences, Inc., priority 2014, dated 2018)
